test system: AsPC-1 (K-Ras G12D); test: CellTiter-Glo cell viability assay, AsPC-1; type: cell-based; conditions: Homo sapiens, ASPC1, 120 h, AsPC-1, K-Ras G12D, 5-day treatment; read-out: AsPC-1 Cell Viability IC50
Method: Determination of Cell Viability in RAS Mutant Cancer Cell Lines
Protocol: CellTiter-Glo® Cell Viability Assay
Note—The following protocol describes a procedure for monitoring cell viability of K-Ras mutant cancer cell lines in response to a compound of the invention. Other RAS isoforms may be employed, though the number of cells to be seeded will vary based on cell line used.
Test compounds (132.5 nL) were directly dispensed into the assay plates containing cells. […] On day 5, assay plates and their contents were equilibrated to room temperature for approximately 30 minutes. […] Luminescence was measured using the PerkinElmer Enspire. Data were normalized by the following: (Sample signal/Avg. DMSO)*100. The data were fit using a four-parameter logistic fit.

IC50 [µM]	Compound
> 10	CCn1c(-c2cnccc2COC)c2c3cc(ccc31)-c1cccc(c1)C[C@H](NC(=O)[C@H](C(C)C)N(C)C(=O)CCN=C=Nc1ccc(OC)cc1)C(=O)N1CCC[C@H](N1)C(=O)OCC(C)(C)C2 [15 A and B]
1 to 10	CCn1c(-c2cnccc2COC)c2c3cc(ccc31)-c1cccc(c1)C[C@H](NC(=O)[C@H](C(C)C)N(C)C(=O)CCN=C=NCc1ccc(OC)cc1OC)C(=O)N1CCC[C@H](N1)C(=O)OCC(C)(C)C2 [61 A and B]
1 to 10	CCn1c(-c2cnccc2COC)c2c3cc(ccc31)-c1cccc(c1)C[C@H](NC(=O)[C@H](C(C)C)N(C)C(=O)CC1(N=C=Nc3ccc(OC)cc3)CC1)C(=O)N1CCC[C@H](N1)C(=O)OCC(C)(C)C2 [65 A and B]
1 to 10	CCn1c(-c2cnccc2COC)c2c3cc(ccc31)-c1cccc(c1)C[C@H](NC(=O)[C@H](C(C)C)N(C)C(=O)CCN=C=NCc1ccccc1C)C(=O)N1CCC[C@H](N1)C(=O)OCC(C)(C)C2 [82 A and B]
1 to 10	CCn1c(-c2cccnc2[C@H](C)OC)c2c3cc(ccc31)-c1cccc(c1)C[C@H](NC(=O)[C@H](C(C)C)N(C)C(=O)CCN=C=NCc1ccccc1OC)C(=O)N1CCC[C@H](N1)C(=O)OCC(C)(C)C2 [Compound 73]
1 to 10	CCn1c(-c2cccnc2[C@H](C)OC)c2c3cc(ccc31)-c1cccc(c1)C[C@H](NC(=O)[C@H](C(C)C)N(C)C(=O)[C@H]1CC[C@H](N=C=NCc3ccccc3OC)C1)C(=O)N1CCC[C@H](N1)C(=O)OCC(C)(C)C2 [Compound 76]
1 to 10	CCn1c(-c2cnccc2COC)c2c3cc(ccc31)-c1cccc(c1)C[C@H](NC(=O)[C@H](C(C)C)N1CC[C@@H](CN=C=NCCOC)C1)C(=O)N1CCC[C@H](N1)C(=O)OCC(C)(C)C2 [Compound 80]
> 10	CCn1c(-c2cccnc2[C@H](C)OC)c2c3cc(ccc31)-c1cccc(c1)C[C@H](NC(=O)[C@H](C(C)C)N(C)C(=O)[C@H]1C[C@H](N=C=Nc3c(C)cccc3C)C1)C(=O)N1CCC[C@H](N1)C(=O)OCC(C)(C)C2 [Compound 126]

Compound	IC50 [µM]
CCn1c(-c2cnccc2COC)c2c3cc(ccc31)-c1cc(O)cc(c1)C[C@H](NC(=O)[C@H](C(C)C)N(C)C(=O)c1ccc(NC(=O)[C@H]3CN3)cn1)C(=O)N1CCC[C@H](N1)C(=O)OCC(C)(C)C2 [47 A and B]	> 10
CCn1c(-c2cnccc2COC)c2c3cc(ccc31)-c1cc(O)cc(c1)C[C@H](NC(=O)[C@H](C(C)C)N(C)C(=O)CN1C(=O)[C@H]3N[C@H]3C1=O)C(=O)N1CCC[C@H](N1)C(=O)OCC(C)(C)C2 [Compound 98]	> 10
CCn1c(-c2cccnc2[C@H](C)OC)c2c3cc(ccc31)-c1cc(O)cc(c1)C[C@H](NC(=O)[C@H](C(C)C)N1CCC3(CN(C(=O)[C@@H]4CN4)C3)C1=O)C(=O)N1CCC[C@H](N1)C(=O)OCC(C)(C)C2 [Compound 109]	> 10
CCn1c(-c2cccnc2[C@H](C)OC)c2c3cc(ccc31)-c1cc(O)cc(c1)C[C@H](NC(=O)[C@H](C(C)C)N1CCC3(CN(C(=O)[C@H]4CN4)C3)C1=O)C(=O)N1CCC[C@H](N1)C(=O)OCC(C)(C)C2 [Compound 115]	> 10
CCn1c(-c2cccnc2[C@H](C)OC)c2c3cc(ccc31)-c1cc(O)cc(c1)C[C@H](NC(=O)[C@H](C(C)C)N1CC[C@@]3(CCN(C(=O)[C@@H]4N[C@@H]4C4CC4)C3)C1=O)C(=O)N1CCC[C@H](N1)C(=O)OCC(C)(C)C2 [Compound 128]	1 to 10
CCn1c(-c2cccnc2[C@H](C)OC)c2c3cc(ccc31)-c1cc(O)cc(c1)C[C@H](NC(=O)[C@H](C(C)C)N1CC[C@@H](NC(=O)[C@H]3CN3)C1=O)C(=O)N1CCC[C@H](N1)C(=O)OCC(C)(C)C2 [Compound 130]	> 10
CCn1c(-c2cccnc2[C@H](C)OC)c2c3cc(ccc31)-c1cc(O)cc(c1)C[C@H](NC(=O)[C@H](C(C)C)N(C)C(=O)c1ccc([C@@H]3CN3)cc1)C(=O)N1CCC[C@H](N1)C(=O)OCC(C)(C)C2 [Compound 131]	> 10

Reference: patent publication US11739074B2, “Ras inhibitors” (Revolution Medicines, Inc., priority 2019, dated 2023)
